Numbered stars: 1 amine (or outer) side, 2 acyl side, 3 side chain; on linkers, the order of the positions; unused ones are H or OH. Square brackets hold non-standard residues; d marks the D form. Peptide text beside a SMILES is read from it. * marks the point of attachment. Exatecan = CC[C@@]1(O)C(=O)OCc2c1cc1n(c2=O)Cc2c-1nc1cc(F)c(C)c3c1c2[C@@H](N*)CC3; Dolaproine = CO[C@@H]([C@@H]1CCCN1)[C@@H](C)C(=O)O; Hexanoyl(6-maleimido) = O=C1C=CC(=O)N1CCCCCC(=O)*; Propanoyl(3-maleimido) = O=C1C=CC(=O)N1CCC(=O)*; Dil = CC[C@H](C)[C@H](NC)[C@@H](CC(=O)O)OC; X3 = C[C@@H](N*)[C@@H](OP(=O)(O)O)c1ccccc1; PABC = O=C(OCc1ccc(N[*:1])cc1)[*:2]; NHCH2OCH2CO = O=C(COCN[*:1])[*:2]; hSer(lactone) = O=C1OCC[C@@H]1N*; Cit = NC(=O)NCCC[C@H](N)C(=O)O; PEG4 = NCCOCCOCCOCCOCCC(=O)O; NMeV = CN[C@H](C(=O)O)C(C)C
What was measured:
human topoisomerase I = molecular target: T1, human topoisomerase I (Homo sapiens, UniProt P11387); assay: Topoisomerase I activity inhibition test; format: biochemical; conditions: supercoiled plasmid DNA, 37° C., 60 minutes
T1 construct: purchased Sigma T9069
T1 sequence (P11387 1-765): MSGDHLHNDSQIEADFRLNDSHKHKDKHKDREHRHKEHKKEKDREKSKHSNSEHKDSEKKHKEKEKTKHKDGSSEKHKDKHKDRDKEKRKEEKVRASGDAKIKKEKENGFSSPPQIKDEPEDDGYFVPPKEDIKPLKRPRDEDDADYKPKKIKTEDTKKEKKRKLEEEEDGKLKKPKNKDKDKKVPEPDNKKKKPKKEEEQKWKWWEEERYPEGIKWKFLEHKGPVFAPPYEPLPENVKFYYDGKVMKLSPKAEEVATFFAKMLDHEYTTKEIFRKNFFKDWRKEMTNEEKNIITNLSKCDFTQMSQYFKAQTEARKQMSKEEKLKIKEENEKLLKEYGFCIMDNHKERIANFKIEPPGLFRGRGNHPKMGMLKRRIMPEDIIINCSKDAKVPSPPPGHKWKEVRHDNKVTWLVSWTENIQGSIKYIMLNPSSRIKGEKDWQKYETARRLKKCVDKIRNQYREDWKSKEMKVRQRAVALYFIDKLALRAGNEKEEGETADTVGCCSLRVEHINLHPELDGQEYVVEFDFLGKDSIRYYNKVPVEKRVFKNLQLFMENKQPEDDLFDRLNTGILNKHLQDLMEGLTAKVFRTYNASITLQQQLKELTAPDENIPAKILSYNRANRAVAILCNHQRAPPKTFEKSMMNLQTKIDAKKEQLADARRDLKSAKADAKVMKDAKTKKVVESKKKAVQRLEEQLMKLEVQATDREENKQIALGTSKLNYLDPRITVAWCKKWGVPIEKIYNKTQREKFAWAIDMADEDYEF
Method: For measuring topoisomerase I activity inhibitory actions, Human DNA Topoisomerase I Assay Kit (manufactured by ProFoldin, HRA100K) was used. A human topoisomerase I (manufactured by Sigma, T9069) was added to a Tris-HCl buffer containing KCl, DTT, MgCl2, EDTA, and BSA to prepare a reaction solution. The reaction solution (35.2 μL) and a test compound solution (4.4 μL) prepared by an aqueous solution containing 10% DMSO were mixed in a 1.5 mL microtube, and the resulting mixture was reacted at 37° C. for 10 minutes. Subsequently, a supercoiled plasmid DNA (4.4 μL) was added thereto, and the resulting mixture was reacted at 37° C. for 60 minutes. After the reaction, the solution was added to a 96 well plate (manufactured by Corning Inc., 3904) at 40 μL/well, and a Dye H19 solution (250 μL) diluted 10 times with the buffer included with the kit was added thereto. A microplate reader (Infinite F500, manufactured by TECAN) was used to measure the fluorescence intensity (excitation wavelength: 485 nm, detection wavelength: 535 nm) of each well.
The topoisomerase I activity inhibition rate (%) was calculated by the following equation.

[1] = Retention time in HPLC (index of hydrophilicity); format: physicochemical; conditions: BEH C18, 0.1% formic acid/acetonitrile gradient, 40° C.
Method: As an index of hydrophilicity of the Examples, the retention time (RT) in HPLC analysis was measured, and compared.
Device: LCMS2020 system Shimadzu Corporation
Column: Acquity UPLC (registered trademark) BEH C18 (2.1×50 mm, 1.7 μm)_Waters
Eluent: Solution A: 0.1% aqueous solution of formic acid, Solution B: 0.1% solution of formic acid in acetonitrile

human liver Cathepsin B = molecular target: T2, human liver Cathepsin B (Homo sapiens, UniProt P07858); assay: Metabolism test using human liver Cathepsin B; format: in vitro ADME; conditions: 37° C., 24 hours, released drug, LC-MS/MS
T2 construct: human liver Cathepsin B (manufactured by Sigma-Aldrich Co. LLC, Cat No. C8571 25 μg/vial); purchased Sigma-Aldrich Co. LLC C8571; host or cells: human liver
Method: To human liver Cathepsin B (manufactured by Sigma-Aldrich Co. LLC, Cat No. C8571 25 μg/vial)(corresponding to 400 Unit/mL)(5 μL), X10 Catabolic Buffer (manufactured by SEKISUI-Xenotech, LLC., K5200)(10 μL), 2.5 mM Bovine Serum Albumin (manufactured by FUJIFILM Wako Pure Chemical Corporation, Cat No. 012-15093)(5 μL), and distilled water (manufactured by FUJIFILM Wako Pure Chemical Corporation, for HPLC)(55 μL) was added 1.2 μM test compound (antibody-drug conjugate prepared in ADC Production examples)(25 μL) dissolved in PBS to prepare a reaction solution. After the reaction solution was incubated at 37° C. for 24 hours, “an antitumor drug molecule or an analog thereof, or a derivative thereof” released from the antibody-drug conjugate into the reaction solution was quantified by LC-MS/MS (high performance liquid chromatography/mass spectrometer system) under the following conditions. LC-MS/MS analysis conditions
(§1) LC: LC20 or LC30 HPLC system manufactured by Shimadzu Corporation
(§2) Column: Phenomenex Kinetex C18 (50×2.1 mm, 2.6 μm)
(§3) Column temperature: 40° C.
(§4) Mobile phase A: 0.1% aqueous solution of formic acid, Mobile phase B: 0.1% solution of formic acid in a mixture of 50% acetonitrile/methanol
(§5) Mode: Positive or Negative
(§6) The release rate (%) of drug was calculated by the following equation.

human liver lysosome = assay: Metabolism test using human liver lysosomal fraction; format: in vitro ADME; conditions: 37° C., 24 hours, released drug, LC-MS/MS
Method: To a reaction composition solution (X10 Catabolic Buffer (manufactured by SEKISUI-Xenotech, LLC., K5200))(60 μL) in which human liver lysosome (manufactured by SEKISUI-Xenotech, LLC., Cat No. H610.L 2.5 mg/mL)(corresponding to 0.125 mg of protein) was suspended and distilled water (manufactured by FUJIFILM Wako Pure Chemical Corporation, for HPLC)(10 μL) was added 1.2 μM test compound (antibody-drug conjugate produced in ADC Production examples)(25 μL) dissolved in PBS to prepare a reaction solution. After the reaction solution was incubated at 37° C. for 24 hours, “an antitumor drug molecule or an analog thereof, or a derivative thereof” released from the antibody-drug conjugate into the reaction solution was quantified by LC-MS/MS (high performance liquid chromatography/mass spectrometer system) under the following conditions. LC-MS/MS analysis conditions
as §1, §2, §3, §4, §5, §6

[2] = Pharmacokinetic test (serum trastuzumab residual rate); format: in vivo; conditions: female BALB/c mouse, intravenous; 3 days vs 5 minutes after administration
Source text: After a prescribed time period, the blood was collected from the jugular vein or abdominal vein, and centrifuged to prepare a serum. The resulting serum was cryopreserved until the measurement.

SMILES: CC[C@@]1(O)C(=O)OCc2c1cc1n(c2=O)Cc2c-1nc1cc(F)c(C)c3c1c2[C@@H](NC(C)=O)CC3 [Example U-001]
- IC50 (human topoisomerase I): ≤ 15 µM

SMILES: CC[C@@]1(O)C(=O)OCc2c1cc1n(c2=O)Cc2c-1nc1cc(F)c(C)c3c1c2[C@@H](NC(=O)Cc1cccc(N)c1)CC3 [Example U-006]
- IC50 (human topoisomerase I): ≤ 15 µM

SMILES: CC[C@H](C)[C@@H]([C@@H](CC(=O)N1CCC[C@H]1[C@H](OC)[C@@H](C)C(=O)N[C@H](C)[C@@H](OP(=O)(O)O)c1ccccc1)OC)N(C)C(=O)[C@@H](NC(=O)[C@H](C(C)C)N(C)C(=O)OCc1ccc(NC(=O)[C@H](CCCNC(N)=O)NC(=O)[C@@H](NC(=O)[C@H](CC(=O)N[C@H]2CCOC2=O)NC(=O)CCOCCOCCOCCOCCNC(=O)CCN2C(=O)C=CC2=O)C(C)C)cc1)C(C)C [Example 2] ({Propanoyl(3-maleimido)-PEG4}-D(hSer(lactone))V[Cit][PABC][NMeV]V[Dil][Dolaproine]-X3)
- Retention time in HPLC measurement ([1]; Table 5 (MMAE-type precursors)): 0.96 min

SMILES: CC[C@@]1(O)C(=O)OCc2c1cc1n(c2=O)Cc2c-1nc1cc(F)c(C)c3c1c2[C@@H](NC(=O)COCNC(=O)CNC(=O)[C@H](Cc1ccccc1)NC(=O)CNC(=O)CNC(=O)[C@H](CC(=O)N[C@H]1CCOC1=O)NC(=O)CCCCCN1C(=O)C=CC1=O)CC3 [Example 13] ({Hexanoyl(6-maleimido)}-D(hSer(lactone))GGFG[NHCH2OCH2CO]-Exatecan)
- Release rate (%) of drug from ADC (human liver Cathepsin B): 24%
- Release rate (%) of drug from ADC (human liver lysosome): 76%
- Serum trastuzumab residual rate after 3 days from administration (%) [2]: 25%

SMILES: CC[C@@]1(O)C(=O)OCc2c1cc1n(c2=O)Cc2c-1nc1cc(F)c(C)c3c1c2[C@@H](NC(=O)c1cccc(N)c1)CC3 [Example U-004]
- IC50 (human topoisomerase I): ≤ 15 µM

SMILES: CC[C@@]1(O)C(=O)OCc2c1cc1n(c2=O)Cc2c-1nc1cc(F)c(C)c3c1c2[C@@H](NC(=O)CNC)CC3 [Example U-003]
- IC50 (human topoisomerase I): ≤ 15 µM

SMILES: C=C1C[C@@H]2CC[C@@]34C[C@H]5O[C@H]6[C@@H](O3)[C@H]3O[C@H](CC[C@@H]3O[C@H]6[C@H]5O4)CC(=O)C[C@@H]3[C@@H](OC)[C@@H](C[C@H](O)CNC(=O)OCc4ccc(NC(=O)[C@H](CCCNC(N)=O)NC(=O)[C@@H](NC(=O)[C@H](CC(=O)N[C@H]5CCOC5=O)NC(=O)CCOCCOCCOP(=O)(O)OCCNC(=O)[C@H](CNC(=O)CCP(=O)(O)O)N5C(=O)C=CC5=O)C(C)C)cc4)O[C@H]3C[C@H]3O[C@@H](CC[C@@H]1O2)C[C@@H](C)C3=C [Example 17]
- Release rate (%) of drug from ADC (human liver Cathepsin B): 58%
- Release rate (%) of drug from ADC (human liver lysosome): 56%
- Retention time in HPLC measurement ([1]; Table 6 (eribulin precursors)): 1.04 min

— patent US20250170267A1, “ANTIBODY-DRUG CONJUGATE PRECURSOR AND INTERMEDIATE FOR SYNTHESIS THEREOF” (UBE Corporation, priority 2022, published 2025)
